Reference: US8138361B2, “C-10 carbamates of taxanes” (The Trustees Of The University Of Pennsylvania, priority 2005, dated 2012)
Like-named read-outs stand apart in the source and are kept apart here.

What was measured:
tubulin = experiment: Tubulin polymerization assay (ability to promote polymerization of tubulin); assay type: biochemical
From the text: The kit is based upon an increase in quantum yield of florescence upon binding of a fluorophore to microtubules. […] Tubulin assembly may also be monitored by light scattering which is approximated by the apparent absorption at 350 nm. In the assay, BSA is employed to prevent aggregation and glycerol, which is a tubulin polymerization enhancer, is omitted from the kit to increase the signal to noise ratio. […]

tumor cell lines = experiment: Cytotoxicity assay (AlamarBlue, monolayer); assay type: cell-based
Protocol: Monolayer assays with tumor cell lines (MCF-7 breast carcinoma and HT-29 colorectal carcinoma from ATCC) were carried out in triplicate in 96-well plates with PMI1640 medium containing 5% fetal bovine serum, 100 U/ml penicillin and 100 μg/ml streptomycin. […] Exponentially growing cells (5,000 MCF-7 or HT-29; 1,500 HFF) were plated in 100 μl medium and incubated overnight (5% CO2, 37° C.). Compounds (20 pM to 20 μM final concentration, 6-8 doses) and vehicle (DMSO) controls were added and the incubation was continued for an additional 72 hours. […] EC50 values were generated from dose-response curves by a 4-parameter method using Softmax PRO software, Mean FC50s (±SD) represent the average of all tests carried out for all lots of a given compound.
1. Cells: • a. Breast tumor cell lines, MCF-7 and NCI/ADR-RES • b. Colon tumor cell lines: HCT-15 and HT-29 • c. Leukemia cell line K562 and K562/R • d. Non-small cell lung cancer cell line A549 • e. Human foreskin fibroblast cells (HFF) • f. Human umbilical vein endothelial cells (HUVEC)
2. Cell Culture: • a. All tumor cells were grown in RPMI1640 medium supplemented with 5% (v/v) fetal bovine serum and the antibiotics in a final concentration of 100 U/ml of penicillin and 100 μg/ml of streptomycin in an atmosphere of 5% CO2. • b. HFF and HUVEC were grown in the medium of FGM-2 and EGM-2 from Cambrex,
3. Cytotoxicity Assay: • a. Day 1: Cells growing exponentially were transferred to 96-well tissue culture plates. All cell types were plated at a density of 1,500-5,000 cells per well in 100 μl complete medium. • b. Day 2: 100 μl of experimental compounds in complete medium was added in triplicate wells, • c. Day 5; Cell growth inhibition was assayed using the AlamarBlue (BioSource, Camarillo, Calif.) signal reduction assay. Correlation between AlamarBlue and cell proliferation has been established in the literature. Compound concentration versus relative fluorescence units was plotted.
Detailed procedures for conducting the assays are provided herein and are known in the art.

Pgp = biological target: T1, Pgp (Bos taurus, UniProt A0A3Q1MB23); experiment: Rhodamine 123 uptake assay in Bovine Brain Endothelial Cells (BBEC); assay type: cell-based; conditions: 25 micromolar; for Rhodamine 123 uptake: 45 min incubation, fluorescence normalized to protein content, average
T1 construct: Bovine Brain Endothelial Cells (BBEC) express Pgp; endogenous in cells; host or cells: Bovine Brain Endothelial Cells (BBEC)
T1 sequence (A0A3Q1MB23 1-1267): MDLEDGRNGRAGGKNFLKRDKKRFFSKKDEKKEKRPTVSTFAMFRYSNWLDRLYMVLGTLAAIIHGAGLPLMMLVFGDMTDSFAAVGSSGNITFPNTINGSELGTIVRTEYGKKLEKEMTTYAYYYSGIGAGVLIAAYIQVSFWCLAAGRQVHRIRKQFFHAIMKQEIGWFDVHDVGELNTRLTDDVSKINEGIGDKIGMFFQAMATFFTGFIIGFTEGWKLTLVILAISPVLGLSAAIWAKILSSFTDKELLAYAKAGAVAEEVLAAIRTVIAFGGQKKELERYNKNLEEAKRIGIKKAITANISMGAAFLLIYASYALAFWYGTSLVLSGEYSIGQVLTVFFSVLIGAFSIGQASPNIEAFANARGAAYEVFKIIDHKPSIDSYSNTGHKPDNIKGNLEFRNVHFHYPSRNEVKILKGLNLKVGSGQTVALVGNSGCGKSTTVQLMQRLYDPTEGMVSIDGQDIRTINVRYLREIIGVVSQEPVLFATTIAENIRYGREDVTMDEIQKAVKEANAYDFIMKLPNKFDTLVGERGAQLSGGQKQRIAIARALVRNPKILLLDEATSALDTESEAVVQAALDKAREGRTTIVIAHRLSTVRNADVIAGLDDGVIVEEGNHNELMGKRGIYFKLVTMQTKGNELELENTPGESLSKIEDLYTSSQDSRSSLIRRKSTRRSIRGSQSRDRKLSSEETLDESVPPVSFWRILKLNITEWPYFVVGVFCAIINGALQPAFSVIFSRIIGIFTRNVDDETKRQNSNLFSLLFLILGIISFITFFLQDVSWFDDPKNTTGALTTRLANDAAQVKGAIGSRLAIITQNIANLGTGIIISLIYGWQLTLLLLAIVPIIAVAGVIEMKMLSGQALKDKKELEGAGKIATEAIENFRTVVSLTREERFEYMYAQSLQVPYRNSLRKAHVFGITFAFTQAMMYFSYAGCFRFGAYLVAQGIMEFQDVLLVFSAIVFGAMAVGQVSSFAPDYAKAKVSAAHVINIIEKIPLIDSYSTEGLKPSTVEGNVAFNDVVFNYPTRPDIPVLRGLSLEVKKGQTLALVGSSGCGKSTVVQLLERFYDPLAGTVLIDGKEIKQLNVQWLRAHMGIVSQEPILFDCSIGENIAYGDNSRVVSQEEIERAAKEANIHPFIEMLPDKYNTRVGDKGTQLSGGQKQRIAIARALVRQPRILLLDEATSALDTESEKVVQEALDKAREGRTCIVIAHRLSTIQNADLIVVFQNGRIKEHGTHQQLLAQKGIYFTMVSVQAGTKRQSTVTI
Protocol: Bovine Brain Endothelial Cells (BBEC) express Pgp and are commonly used as model for Blood Brain Barrier (BBB).
All compounds and controls were run in triplicates.
The experiment was run in two 24-wells plates. […] After addition of the test compounds, cells were incubated for 45 min. After this time the drug solutions were removed by aspiration. The monolayers were then rinsed three times with ice-cold PBSG and finally solubilized with 1 mL of lysing solution for 30 min.

[1] = average %, relative to paclitaxel
[2] = average EC50, cell line not given, 72 hours incubation

Molecule	MPA: ability of the compound to promote polymerization of tubulin, expressed as percentage of the activity of paclitaxel (tubulin; [1])	EC50 (tumor cell lines; [2]) [nM]	further results
CC(=O)OC12COC1CC(O)C1(C)C(=O)C(OC(=O)N3CCOCC3)C3=C(C)C(OC(=O)C(O)C(NC(=O)c4ccccc4)c4ccccc4)CC(O)(C(OC(=O)c4ccccc4)C21)C3(C)C (centres unmarked) [Compound 7, PXL-10Ca-Morpholine]			MPA: ability of the compound to promote polymerization of tubulin, expressed as percentage of the activity of paclitaxel (tubulin): a (key: a > 70%; b = 30-70%; c < 40%); EC50 (tumor cell lines): 10 to 500 nM
CC(=O)OC12COC1CC(O)C1(C)C(=O)C(OC(=O)n3cnc4ccccc43)C3=C(C)C(OC(=O)C(O)C(NC(=O)c4ccccc4)c4ccccc4)CC(O)(C(OC(=O)c4ccccc4)C21)C3(C)C (centres unmarked) [Compound 8, 10-O-deacetyl-paclitaxel-10-O-carbonyl-N-benzimidazole]	b (b = 30-70%)		
CC(=O)OC12COC1CC(O)C1(C)C(=O)C(OC(=O)NCC(=O)O)C3=C(C)C(OC(=O)C(O)C(NC(=O)c4ccccc4)c4ccccc4)CC(O)(C(OC(=O)c4ccccc4)C21)C3(C)C (centres unmarked) [Compound 12, PXL-10Ca-Gly-OH]			EC50 (tumor cell lines): > 500 nM; Rhodamine 123 uptake (Pgp): a (a < 0.25)
CC(=O)OC12COC1CC(O)C1(C)C(=O)C(OC(=O)N(C)CC(=O)O)C3=C(C)C(OC(=O)C(O)C(NC(=O)c4ccccc4)c4ccccc4)CC(O)(C(OC(=O)c4ccccc4)C21)C3(C)C (centres unmarked) [Compound 13, PXL-10Ca-Sar-OH]		> 500	Rhodamine 123 uptake (Pgp): b (b = >0.25)
COC(=O)C(C)NC(=O)OC1C(=O)C2(C)C(O)CC3OCC3(OC(C)=O)C2C(OC(=O)c2ccccc2)C2(O)CC(OC(=O)C(O)C(NC(=O)c3ccccc3)c3ccccc3)C(C)=C1C2(C)C (centres unmarked) [Compound 39, PXL-10Ca-alanine-Me-ester]			EC50 (tumor cell lines): < 10 nM
CC(=O)O[C@H]1C(=O)[C@@]2(C)[C@H]([C@H](OC(=O)c3ccccc3)[C@]3(O)C[C@H](OC(=O)[C@H](O)[C@@H](NC(=O)c4ccccc4)c4ccccc4)C(C)=C1C3(C)C)[C@]1(OC(C)=O)CO[C@@H]1C[C@@H]2O [PXL, Paclitaxel, reference compound]			effect on rhodamine uptake (in words) (Pgp): higher rhodamine uptake; Rhodamine 123 uptake (Pgp): b (b = >0.25)
PXL-10Ca-Glu		10 to 500	
PXL-10Ca-Glucosamine [Compound 5]	a (a > 70%)	> 500	
PXL-10Ca-Gly(tBu) [Compound 14]	b (b = 30-70%)	10 to 500	Rhodamine 123 uptake (Pgp): b (b = >0.25)
PXL-10Ca-Gly-N(Me)2 [Compound 15]		10 to 500	Rhodamine 123 uptake (Pgp): a (a < 0.25)
PXL-10Ca-H-Lys-OH [Compound 20]	a (a > 70%)	> 500	
PXL-10Ca-N-methyl-N-butylamine [Compound 22]	a (a > 70%)	< 10	
PXL-10Ca-PEG6000-10Ca-PXL [Compound 29]	a (a > 70%)		
PXL-10Ca-PEG(14)-COOH [Compound 25]	a (a > 70%)	> 500	
PXL-10Ca-PEG(29)-VBL [Compound 28]		10 to 500	MPA: ability of the compound to promote polymerization of tubulin, expressed as percentage of the activity of paclitaxel (tubulin; relative to paclitaxel, given as number): 40%
PXL-10Ca-Ph-acetic acid [Compound 10]	a (a > 70%)	> 500	
PXL-10Ca-Z-Lys-OH [Compound 19]	a (a > 70%)	> 500	
PXL-10Ca-aniline [Compound 9]	b (b = 30-70%)	10 to 500	
PXL-10Ca-di-Et-amine [Compound 23]	c (c < 40%)	10 to 500	
PXL-10Ca-p-NO2-aniline [Compound 18]	b (b = 30-70%)	10 to 500	
PXL-10Ca-piperidine [Compound 6]	b (b = 30-70%)	< 10	
PXL-10CaSpermine [Compound 16]	a (a > 70%)		EC50 (tumor cell lines): > 500 nM
